The values below come from patent US20220411439A1, “POLYMORPHS OF A MACROCYCLIC KINASE INHIBITOR” (TURNING POINT THERAPEUTICS, INC., priority 2019, published 2022).

In the assay the target is T1, Ba/F3 KIF5B-RET (Homo sapiens, UniProt P07949, cells depend on it, form not given).
T1 construct: IC50 (nM); other: Experiment 1; other: Experiment 2; fused on or other part: P33176 (Kinesin-1 heavy chain)
The assay is described as follows: Compound I anti-cell proliferation comparison (FIG. 5A, 5B). Conditions: for GI50: read-out: IC50 (the source's name). Type of assay: cell-based. The text has this:
The KIF5B-RET gene was synthesized at GenScript and cloned into pCDH-CMV-MCS-EF1-Puro plasmid (System Biosciences, Inc). KIF5B-RET point mutation V804M and G810C were generated at GenScript by PCR and confirmed by sequencing. Ba/F3-KIF5B-RET wild type and mutant were generated by transducing Ba/F3 cells with lentivirus containing KIF5B-RET wide type or mutant. Stable cell lines were selected by puromycin treatment, followed by IL-3 withdrawal. Briefly, 5×10^6 Ba/F3 cells were transduced with lentivirus supernatant in the presence of 8 μg/mL protamine sulfate. The transduced cells were subsequently selected with 1 μg/mL puromycin in the presence of IL3-containing medium RPMI1640, plus 10% FBS. After 10-12 days of selection, the surviving cells were further selected for […] independent growth.
Two thousand cells per well were seeded in 384 well white plate for 24 hrs, and then treated with compounds for 72 hours (37° C., 5% CO2). Cell proliferation was measured using CellTiter-Glo luciferase-based ATP detection assay (Promega) following the manufactures's protocol. IC50 determinations were performed using GraphPad Prism software (GraphPad, Inc., San Diego, Calif.).

Where two headings read alike, the source gives them in different places.

T1 sequence (P07949 whole entry G810C, form open, the tested form may be a part): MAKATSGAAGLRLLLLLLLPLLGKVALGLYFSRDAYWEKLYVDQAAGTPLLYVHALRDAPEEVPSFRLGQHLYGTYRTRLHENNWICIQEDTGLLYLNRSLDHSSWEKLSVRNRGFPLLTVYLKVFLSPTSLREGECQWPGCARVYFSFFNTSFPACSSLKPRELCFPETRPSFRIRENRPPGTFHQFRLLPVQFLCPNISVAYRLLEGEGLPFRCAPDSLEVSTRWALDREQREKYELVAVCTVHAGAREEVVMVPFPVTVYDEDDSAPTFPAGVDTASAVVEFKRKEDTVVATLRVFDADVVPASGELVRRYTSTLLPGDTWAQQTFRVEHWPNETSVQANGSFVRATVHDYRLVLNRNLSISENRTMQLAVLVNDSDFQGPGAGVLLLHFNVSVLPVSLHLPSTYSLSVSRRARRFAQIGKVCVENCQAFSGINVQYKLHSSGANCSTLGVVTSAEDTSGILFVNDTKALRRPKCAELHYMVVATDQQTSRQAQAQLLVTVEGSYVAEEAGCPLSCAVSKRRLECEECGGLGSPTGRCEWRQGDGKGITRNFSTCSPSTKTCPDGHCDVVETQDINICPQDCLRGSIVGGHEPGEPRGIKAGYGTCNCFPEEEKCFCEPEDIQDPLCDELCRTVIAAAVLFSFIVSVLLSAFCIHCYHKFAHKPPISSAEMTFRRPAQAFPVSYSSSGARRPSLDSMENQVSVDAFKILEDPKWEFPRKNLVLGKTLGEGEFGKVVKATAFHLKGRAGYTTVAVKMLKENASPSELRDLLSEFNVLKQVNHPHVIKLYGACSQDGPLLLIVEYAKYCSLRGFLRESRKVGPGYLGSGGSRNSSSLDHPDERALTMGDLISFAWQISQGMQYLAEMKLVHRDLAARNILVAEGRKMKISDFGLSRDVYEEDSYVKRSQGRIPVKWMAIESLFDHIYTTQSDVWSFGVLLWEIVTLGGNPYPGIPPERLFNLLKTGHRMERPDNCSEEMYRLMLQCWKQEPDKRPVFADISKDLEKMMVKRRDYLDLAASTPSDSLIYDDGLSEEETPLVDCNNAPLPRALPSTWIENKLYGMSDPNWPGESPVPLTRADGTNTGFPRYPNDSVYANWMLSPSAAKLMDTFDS

For orientation: IC75 means the concentration at which the effect reaches the 75% level. Higher therefore signals a need for much substance. In general, IC90 refers to the point of the concentration-response curve where the effect stands at 90%. Higher therefore signals weaker potency. For the compound `CO[C@]1(C(=O)N[C@@H](C)c2ccc(-n3cc(F)cn3)nc2)CC[C@H](c2nc(C)cc(Nc3cc(C)[nH]n3)n2)CC1` [BLU-667], under “Experiment 1”, the “IC75” value amounted to 115.4 nM, it took 720 nM to reach the 90% level (IC90) and the GI50 is 18.5 nM. In addition, for the setting “Experiment 2”, the “IC75” value stood at 214.3 nM, the 90% effect level (IC90) was put at 1030 nM and the GI50 was determined as 44.6 nM.
